Data reported in patent publication US5071965A, “Novel TC-99M complexes” (Mallinckrodt Medical, Inc., priority 1989, dated 1991).

Assay: Biodistribution of Tc-99m complexes in guinea pigs (heart uptake, heart/blood)
Details: for 5 Minute Guinea Pig % HT Uptake: jugular vein injection
Protocol: The procedures used for determining biodistribution are as follows.
Guinea Pigs--The guinea pigs are anesthetized and the technetium complex is injected into the jugular vein after a cutdown. The animals are sacrificed after 5 minutes and the organs removed and counted as with the rats.
For guinea pigs, significant heart uptake is determined if the percentage of technetium in the heart is greater than 0.5% and the heart/blood ratio is greater than 1.

Row | SMILES | 5 Minute Guinea Pig % HT Uptake (5 minutes, Tc-99m complex) [%] | further results
1 | COc1ccc(COCC(CN=Cc2ccccc2O)(CN=Cc2ccccc2O)CN=Cc2ccccc2O)cc1 (stereo not shown) [phenol, 2,2'-[[2-[[[2-hydroxyphenyl)methylene]amino]methyl]-2-(4-methoxyphenyl)methoxymethyl-1,3-propanediyl]bis(nitrilomethylidyne)]bis-] | 1.08 | 
2 | Oc1c(F)cc(F)cc1C=NCC(CN=Cc1cc(F)cc(F)c1O)(CN=Cc1cc(F)cc(F)c1O)COCc1ccccc1 (stereo not shown) [2,4-difluorophenol, 2,2'-[[2-[[[(3,5-difluoro-2-hydroxyphenyl)methylene]amino]methyl]-2-phenylmethoxymethyl-1,3-propanediyl]bis(nitrilomethylidyne)]bis-] | 1.72 | 
3 | CN(C)c1ccc(C=NCC(C)(CN=Cc2ccc(N(C)C)cc2O)CN=Cc2ccc(N(C)C)cc2O)c(O)c1 (stereo not shown) [3-Dimethylaminophenol, 6,6'-[[2-[[[(4-dimethylamino-2-hydroxy-phenyl)methylene]amino]methyl]-2-methyl-1,3-propanediyl]bis-(nitrilomethylidyne)]bis-] | 0.72 | 
4 | COC(C)(C)Cc1ccc(O)c(C=NCC(C)(CN=Cc2cc(CC(C)(C)OC)ccc2O)CN=Cc2cc(CC(C)(C)OC)ccc2O)c1 (stereo not shown) [4-(2-methoxy-2-methyl-propyl)phenol, 2,2'-[[2-[[[(5-(2-methoxy-2-methyl-propyl)-2-hydroxyphenyl)methylene]amino]methyl]-2-methyl-1,3-propanediyl]bis(nitrilomethylidyne)]bis-] | 0.49 | 
5 | COc1cc(COCC(CN=Cc2ccccc2O)(CN=Cc2ccccc2O)CN=Cc2ccccc2O)cc(OC)c1OC (stereo not shown) [phenol, 2,2'-[[2-[[[(2-hydroxyphenyl)methylene]amino]methyl]-2-(3,4,5-trimethoxyphenyl)methoxymethyl-1,3-propanediyl]bis(nitrilomethylidyne)]bis-] | 1.00 | 
6 | Cc1ccc(C=NCC(C)(CN=Cc2ccc(C)cc2O)CN=Cc2ccc(C)cc2O)c(O)c1 (stereo not shown) [R5=H, R6=CH3, R7=H, R8=H, R3=H, R4=CH3, 3-Methylphenol, 6,6'-[[2-[[[(4-methyl-2-hydroxyphenyl)methylene]amino]methyl]-2-methyl-1,3-propanediyl]bis(nitrilomethylidyne)]bis-] | 1.51 | 
7 | COc1cc(COCC(CN=Cc2c(O)cc(OC)c(OC)c2OC)(CN=Cc2c(O)cc(OC)c(OC)c2OC)CN=Cc2c(O)cc(OC)c(OC)c2OC)cc(OC)c1OC (stereo not shown) [3,4,5-trimethoxyphenol, 2,2'-[[2-[[[(4,5,6-trimethoxy-2-hydroxyphenyl)methylene]amino]methyl]-2-(3,4,5-trimethoxyphenyl)methoxymethyl-1,3-propanediyl]bis(nitrilomethylidyne)]bis-] | 0.98 | 
8 | COC(=O)c1ccc(O)c(C=NCC(C)(CN=Cc2cc(C(=O)OC)ccc2O)CN=Cc2cc(C(=O)OC)ccc2O)c1 (stereo not shown) [methyl-4-hydroxybenzoate, 3,3'-[[2-[[[(5-carbomethoxy-2-hydroxyphenyl)methylene]amino]methyl]-2-methyl-1,3-propanediyl]bis(nitrilomethylidyne)]bis-] | 1.23 | 
9 | CCCOCC(CNCc1ccccc1O)(CNCc1ccccc1O)CNCc1ccccc1O [Example 96, 1,1,1-tris(2-hydroxyphenylmethylaminomethyl)-2-propoxyethane] |  | guinea pig biodistributions, compared with the complex of Example 95 (complex made from the reduced ligand): identical
10 | COc1cc(O)c(C=NCC(C)(CN=Cc2c(O)cc(OC)c(C)c2OC)CN=Cc2c(O)cc(OC)c(C)c2OC)c(OC)c1C (stereo not shown) [3,5-dimethoxy-4-methyl-phenol, 2,2'-[[2-[[[(4,6-dimethoxy-5-methyl-2-hydroxyphenyl)methylene]amino]methyl]-2-methyl-1,3-propanediyl]bis(nitrilomethylidyne)]bis-] | 0.84 | 
11 | CC(CN=Cc1cc(C(F)(F)F)ccc1O)(CN=Cc1cc(C(F)(F)F)ccc1O)CN=Cc1cc(C(F)(F)F)ccc1O (stereo not shown) [R5=H, R6=H, R7=CF3, R8=H, R3=H, R4=CH3] | 0.51 | 
12 | Oc1ccccc1C=NCC(CN=Cc1ccccc1O)(CN=Cc1ccccc1O)COCc1ccccc1 (stereo not shown) [phenol, 2,2'-[[2-[[[(2-hydroxyphenyl)methylene]amino]methyl]-2-phenylmethoxymethyl-1,3-propanediyl]bis(nitrilomethylidyne)]bis-] | 1.60 | 
13 | C=CCOCC(CN=Cc1ccccc1O)(CN=Cc1ccccc1O)CN=Cc1ccccc1O (stereo not shown) [phenol, 2,2'-[[2-[[[(2-hydroxyphenyl)methylene]amino]methyl]-2-propenyloxymethyl-1,3-propanediyl]bis(nitrilomethylidyne)]bis-] | 1.09 | 
14 | CCOc1ccc(C=NCC(C)(CN=Cc2ccc(OCC)cc2O)CN=Cc2ccc(OCC)cc2O)c(O)c1 (stereo not shown) [3-Ethoxyphenol, 6,6'-[[2[[[(4-ethoxy-2-hydroxyphenyl)methylene]amino]methyl-2-methyl-1,3-propanediyl]bis(nitrilomethylidyne)]bis-] | 0.98 | 
15 | CCCOCC(CN=Cc1ccc(OC)cc1O)(CN=Cc1ccc(OC)cc1O)CN=Cc1ccc(OC)cc1O (stereo not shown) | 0.87 | 

The next lines start with results.

Row | 5 Minute Guinea Pig % HT Uptake (5 minutes, Tc-99m complex) [%] | SMILES | further results
16 | 1.66 | COCCCCC(CN=Cc1ccccc1O)(CN=Cc1ccccc1O)CN=Cc1ccccc1O (stereo not shown) | 
17 | 1.71 | CCOCC(CN=Cc1ccccc1O)(CN=Cc1ccccc1O)CN=Cc1ccccc1O (stereo not shown) [phenol, 2,2'-[[2-[[[(2-hydroxyphenyl)methylene]amino]methyl]-2-ethoxymethyl-1,3-propanediyl]bis(nitrilomethylidyne)]bis-] | 
18 | 1.01 | COCCOCC(CN=Cc1ccccc1O)(CN=Cc1ccccc1O)CN=Cc1ccccc1O (stereo not shown) [phenol, 2,2'-[[2-[[[(2-hydroxyphenyl)methylene]amino]methyl]-2-methoxyethoxymethyl-1,3-propanediyl]bis(nitrilomethylidyne)]bis-] | 
19 | 1.55 | CCC(C)OCC(CN=Cc1ccccc1O)(CN=Cc1ccccc1O)CN=Cc1ccccc1O (stereo not shown) [Phenol, 2,2'-[[2-[[[(2-hydroxyphenyl)methylene]amino]methyl]-(1-methylpropoxy)methyl-1,3-propanediyl]bis(nitrilomethylidyne)]bis-] | 
20 | 0.84 | Oc1ccccc1C=NCCN(CCN=Cc1ccccc1O)CCN=Cc1ccccc1O [R5=H, R6=H, R7=H, R8=H, R3=H, R4=--, tris(2-salicylideneiminoethyl)amine] | 
21 | 1.19 | CCCCCCOCC(CN=Cc1ccccc1O)(CN=Cc1ccccc1O)CN=Cc1ccccc1O (stereo not shown) [phenol, 2,2,'-[[2-[[[(2-hydroxyphenyl)methylene]amino]methyl]-2-hexyloxymethyl-1,3-propanediyl]bis(nitrilomethylidyne)]bis-] | 
22 | 2.11 | COc1ccc(C=NCC(C)(CN=Cc2ccc(OC)cc2O)CN=Cc2ccc(OC)cc2O)c(O)c1 (stereo not shown) [R5=H, R6=OCH3, R7=H, R8=H, R3=H, R4=CH3, 3-Methoxyphenol, 6,6'-[[2-[[[(4-methoxy-2-hydroxyphenyl)methylene]amino]methyl]-2-methyl-1,3-propanediyl]bis(nitrilomethylidyne)]bis-] | Guinea Pig Heart/Blood Ratio (5 minutes, Tc-99m complex): 16
23 | 1.04 | COc1ccc(COCC(CN=Cc2c(O)cc(OC)c(OC)c2OC)(CN=Cc2c(O)cc(OC)c(OC)c2OC)CN=Cc2c(O)cc(OC)c(OC)c2OC)cc1 (stereo not shown) [3,4,5-trimethoxyphenol, 2,2'-[[2-[[[(4,5,6-trimethoxy-2-hydroxyphenyl)methylene]amino]methyl]-2-(4-methoxyphenyl)methoxymethyl-1,3-propranediyl]bis(nitrilomethylidyne)]bis-] | 
24 | 1.72 | CSc1ccc(C=NCC(C)(CN=Cc2ccc(SC)cc2O)CN=Cc2ccc(SC)cc2O)c(O)c1 (stereo not shown) [R5=H, R6=SCH3, R7=H, R8=H, R3=H, R4=CH3, 3-Methylthiophenol, 6,6'-[[2-[[[(4-methylthio-2-hydroxyphenyl)methylene]amino]methyl]-2-methyl-1,3-propanediyl]bis(nitrilomethylidyne)]bis-] | 
25 | 0.86 | COCC(CN=Cc1c(O)cc(OC)c(OC)c1OC)(CN=Cc1c(O)cc(OC)c(OC)c1OC)CN=Cc1c(O)cc(OC)c(OC)c1OC (stereo not shown) [3,4,5-trimethoxyphenol, 2,2'-[[2-[[[(4,5,6-trimethoxy-2-hydroxyphenyl)methylene]amino]methyl]-2-methoxymethyl-1,3-propanediyl]bis(nitrilomethylidyne)]bis-] | 
26 | 0.47 | CCc1cccc(C=NCC(C)(CN=Cc2cccc(CC)c2O)CN=Cc2cccc(CC)c2O)c1O (stereo not shown) [2-ethylphenol, 6,6'-[[2-[[[3-ethyl-2-hydroxyphenyl)methylene]amino]methyl]2-methyl-1,3-propanediyl]bis(nitrilomethylidyne)]bis-] | 
27 | 0.50 | CCOc1cccc(C=NCC(C)(CN=Cc2cccc(OCC)c2O)CN=Cc2cccc(OCC)c2O)c1O (stereo not shown) [2-ethoxyphenol, 6,6'-[[2-[[[(3-ethoxy-2-hydroxyphenyl)methylene]amino]methyl]-2-methyl-1,3-propanediyl]bis(nitrilomethylidyne)]bis-] | 
28 | 1.22 | CCCCCOCC(CN=Cc1ccccc1O)(CN=Cc1ccccc1O)CN=Cc1ccccc1O (stereo not shown) [Phenol, 2,2'-[[2-[[[(2-hydroxyphenyl)methylene]amino]methyl]-2-pentyloxymethyl-1,3-propandiyl]bis(nitrilomethylidyne)]bis-] | 
29 | 0.57 | CC(C)OCC(CN=Cc1ccccc1O)(CN=Cc1ccccc1O)CN=Cc1ccccc1O (stereo not shown) [Phenol, 2,2'-[[2[[[(2-hydroxyphenyl)methylene]amino]methyl]-2-(1-methylethoxy)methyl-1,3-propanediyl]bis(nitrilomethylidyne)]bis-] | 
30 | 1.55 | COc1cccc(O)c1C=NCC(C)(CN=Cc1c(O)cccc1OC)CN=Cc1c(O)cccc1OC (stereo not shown) [R5=H, R6=H, R7=H, R8=OCH3, R3=H, R4=CH3, 3-Methoxyphenol, 2,2'-[[2-[[[(6-methoxy-2-hydroxyphenyl)methylene]amino]methyl]-2-methyl-1,3-propanediyl]bis(nitrilomethylidyne)]bis-] | 
